The source made the active and inactive calls.
Key:
[1] = molecular target: Voltage-gated inwardly rectifying potassium channel KCNH2 (Homo sapiens, UniProt Q12809); details: Potency;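 also: confirmatory quantitative high-throughput screen measuring inhibition of hERG channel activity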
Beta-galactosidase = Beta-galactosidase (Escherichia coli, UniProt Q8VNN2); test: PubChem AID 485352; format: functional
[2] = molecular target: Type-1 angiotensin II receptor (Homo sapiens, UniProt P30556); test: AT1 receptor antagonists, dose response, selectivity assay for APJ receptor antagonist project, cell-based, uHTS hits (AID 463214); format: functional;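 also: antagonist potency against angiotensin II stimulated AT1 response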
Chain of Type-1 angiotensin II receptor (P30556 whole entry): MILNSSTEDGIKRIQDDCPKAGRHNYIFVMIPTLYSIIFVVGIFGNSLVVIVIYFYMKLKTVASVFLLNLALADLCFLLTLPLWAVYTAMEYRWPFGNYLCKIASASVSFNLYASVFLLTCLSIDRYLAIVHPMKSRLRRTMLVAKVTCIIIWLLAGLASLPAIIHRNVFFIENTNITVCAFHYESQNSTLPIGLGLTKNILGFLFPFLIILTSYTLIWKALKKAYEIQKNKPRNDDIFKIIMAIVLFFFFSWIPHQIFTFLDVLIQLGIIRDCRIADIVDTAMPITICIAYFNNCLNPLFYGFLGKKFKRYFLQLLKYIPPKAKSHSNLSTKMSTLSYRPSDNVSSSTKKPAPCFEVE

[3] = NIH-3T3 fibroblast cytotoxicity, dose response, cytotoxicity control, cell-based, fluorescence, Alamar Blue, secondary assay (AID 2327); format: functional;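 also: NIH-3T3 mouse fibroblasts cultured with fluconazole at 8 µg/mL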
[4] = C. albicans growth with fluconazole, confirmation, fluorescence, retest (AID 2467); format: functional, cell-based
[5] = molecular target: Serine/threonine-protein phosphatase (Candida dubliniensis (strain CD36 / CBS 7987 / NCPF 3949 / NRRLY-17841) (Yeast), UniProt B9W6M3); test: calcineurin pathway inhibitors in yeast reporter, dose response, S. cerevisiae, CDRE-lacZ, luminescence, secondary (AID 2388); format: functional, cell-based;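 also: yeast reporter cells carrying a calcineurin-responsive lacZ construct stimulated with calcium chloride; luminescent beta-galactosidase reporter signal in whole cells rather than isolated phosphatase activity; potency for inhibition where a drop in reporter signal means calcineurin blockade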
Chain of Serine/threonine-protein phosphatase (B9W6M3 whole entry): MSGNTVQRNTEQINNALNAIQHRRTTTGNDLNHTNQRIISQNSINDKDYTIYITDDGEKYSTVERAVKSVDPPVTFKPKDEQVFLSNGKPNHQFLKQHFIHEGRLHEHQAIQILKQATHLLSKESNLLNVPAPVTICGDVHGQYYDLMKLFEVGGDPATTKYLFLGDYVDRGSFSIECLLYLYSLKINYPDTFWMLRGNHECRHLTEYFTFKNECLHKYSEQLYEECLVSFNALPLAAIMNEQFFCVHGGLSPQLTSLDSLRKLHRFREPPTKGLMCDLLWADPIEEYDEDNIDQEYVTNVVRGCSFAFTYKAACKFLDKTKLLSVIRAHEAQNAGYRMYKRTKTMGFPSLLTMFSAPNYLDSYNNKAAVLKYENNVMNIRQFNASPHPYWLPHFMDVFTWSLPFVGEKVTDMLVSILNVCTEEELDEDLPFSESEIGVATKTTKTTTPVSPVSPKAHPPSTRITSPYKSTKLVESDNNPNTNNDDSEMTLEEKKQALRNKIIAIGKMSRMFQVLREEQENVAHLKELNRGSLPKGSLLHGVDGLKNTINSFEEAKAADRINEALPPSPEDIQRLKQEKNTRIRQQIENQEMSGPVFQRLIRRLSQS

[6] = molecular target: ATP-dependent molecular chaperone HSP82 (Candida albicans (strain WO-1) (Yeast), UniProt C4YTQ8); test: loss of DOC-induced GRE-beta-galactosidase reporter signal, dose response, Hsp90 inhibitor project, S. cerevisiae, luminescence (AID 2400); format: functional, cell-based;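 also: beta-galactosidase luminescence from glucocorticoid response element reporter as proxy for Hsp90 function; inhibitor potency where signal loss means Hsp90 inhibition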
Chain of ATP-dependent molecular chaperone HSP82 (C4YTQ8 whole entry): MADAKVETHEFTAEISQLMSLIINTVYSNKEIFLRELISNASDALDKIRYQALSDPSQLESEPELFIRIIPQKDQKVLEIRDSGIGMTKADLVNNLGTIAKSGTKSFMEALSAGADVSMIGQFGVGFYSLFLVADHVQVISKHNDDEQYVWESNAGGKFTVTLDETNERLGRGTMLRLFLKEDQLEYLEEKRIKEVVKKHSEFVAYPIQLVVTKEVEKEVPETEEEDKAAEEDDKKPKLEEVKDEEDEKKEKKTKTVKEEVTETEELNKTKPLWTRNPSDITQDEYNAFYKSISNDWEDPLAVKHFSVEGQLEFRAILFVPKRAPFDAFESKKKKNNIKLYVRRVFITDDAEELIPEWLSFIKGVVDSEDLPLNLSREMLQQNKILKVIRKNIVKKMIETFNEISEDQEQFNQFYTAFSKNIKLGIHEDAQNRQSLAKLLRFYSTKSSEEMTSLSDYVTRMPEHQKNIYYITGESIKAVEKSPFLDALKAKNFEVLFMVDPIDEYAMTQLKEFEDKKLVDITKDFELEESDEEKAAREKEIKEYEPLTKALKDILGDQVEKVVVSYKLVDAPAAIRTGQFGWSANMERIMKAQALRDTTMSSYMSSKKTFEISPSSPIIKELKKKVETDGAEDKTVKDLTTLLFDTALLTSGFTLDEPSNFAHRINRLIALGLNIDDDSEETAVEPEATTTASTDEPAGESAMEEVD

[7] = molecular target: T1, Probable nicotinate-nucleotide adenylyltransferase (Staphylococcus aureus (strain N315), UniProt P65502); format: functional, Staphylococcus aureus subsp. aureus N315;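 as to IC50 Mean: confirmatory dose-response retesting of NadD inhibitor hits first found in an ultra-high-throughput screen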
T1 sequence (P65502 whole entry): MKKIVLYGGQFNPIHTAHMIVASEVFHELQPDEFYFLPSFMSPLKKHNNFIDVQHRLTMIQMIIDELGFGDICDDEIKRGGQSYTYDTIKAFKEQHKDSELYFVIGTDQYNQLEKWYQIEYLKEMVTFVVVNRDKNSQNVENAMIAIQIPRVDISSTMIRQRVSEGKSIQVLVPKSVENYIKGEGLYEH

[8] = molecular target: T1, Probable nicotinate-nucleotide adenylyltransferase; format: functional, Staphylococcus aureus subsp. aureus N315; details: read-out: IC50_Mean
Protein Wnt-3a = Protein Wnt-3a (Mus musculus, UniProt P27467); test: Wnt3a-driven reporter signaling inhibition, dose response, selectivity assay for Gli-SUFU antagonist project, Wnt-LIGHT cells, luminescence (AID 651570); format: functional; details: read-out: IC50_Mean;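 also: Wnt-LIGHT reporter cells stimulated with conditioned medium from Wnt3a-producing cells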
Chain of Protein Wnt-3a (P27467 whole entry): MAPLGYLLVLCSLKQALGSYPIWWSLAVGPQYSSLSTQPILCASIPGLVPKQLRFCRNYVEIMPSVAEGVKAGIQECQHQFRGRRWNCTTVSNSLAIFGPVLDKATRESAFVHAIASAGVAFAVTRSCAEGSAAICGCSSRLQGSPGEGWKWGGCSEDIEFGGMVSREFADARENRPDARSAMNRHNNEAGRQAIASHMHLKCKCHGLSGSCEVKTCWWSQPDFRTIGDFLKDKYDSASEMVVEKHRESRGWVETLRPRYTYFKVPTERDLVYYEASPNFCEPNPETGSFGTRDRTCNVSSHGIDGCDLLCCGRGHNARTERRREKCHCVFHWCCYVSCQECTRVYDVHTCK

[9] = molecular target: Heat shock protein HSP 90-alpha (Homo sapiens, UniProt P07900); format: functional, organism-based
[10] = Luminescence Cell-Based Dose Response HTS to Identify Activators of Luciferase Translation or Activity in H4 […] Cells. [Related pubchem assays: 1829 (Project Summary), 1814 (Primary HTS)]; format: functional
H4 = test: Luminescence Cell-Based Dose Response HTS to Identify Activators of 5'UTR Stem-Loop Driven Prion Protein mRNA Translation in H4 Neuroglioblastoma Cells. [Related pubchem assays: 1829 (Project Summary), 1814 (Primary HTS)]; format: functional; details: Homo sapiens
[11] = molecular target: Beta-2 adrenergic receptor (Homo sapiens, UniProt P07550); test: beta2AR agonists driving receptor internalization, dose response, cell-based, FAP fluorogen, flow cytometry, cherry pick 1 (AID 588763); format: functional
Chain of Beta-2 adrenergic receptor (P07550 whole entry): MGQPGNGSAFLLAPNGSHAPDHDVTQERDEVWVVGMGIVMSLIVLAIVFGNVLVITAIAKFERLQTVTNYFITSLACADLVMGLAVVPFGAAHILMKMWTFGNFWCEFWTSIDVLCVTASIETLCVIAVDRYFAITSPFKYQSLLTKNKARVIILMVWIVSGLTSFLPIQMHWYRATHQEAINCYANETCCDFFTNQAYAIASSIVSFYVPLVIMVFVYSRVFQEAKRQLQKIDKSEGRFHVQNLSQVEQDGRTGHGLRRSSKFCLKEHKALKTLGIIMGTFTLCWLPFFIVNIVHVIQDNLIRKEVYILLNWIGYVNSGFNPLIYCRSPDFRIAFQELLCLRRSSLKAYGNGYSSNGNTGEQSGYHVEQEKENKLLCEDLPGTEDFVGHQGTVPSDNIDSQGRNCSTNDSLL

Insulin-degrading enzyme [12] = molecular target: T2, Insulin-degrading enzyme (Homo sapiens, UniProt P14735); test: activators of recombinant IDE enzyme, dose response, counter-screen for IDE activator project, biochemical, fluorescence polarization (AID 588681)
T2 sequence (P14735 whole entry): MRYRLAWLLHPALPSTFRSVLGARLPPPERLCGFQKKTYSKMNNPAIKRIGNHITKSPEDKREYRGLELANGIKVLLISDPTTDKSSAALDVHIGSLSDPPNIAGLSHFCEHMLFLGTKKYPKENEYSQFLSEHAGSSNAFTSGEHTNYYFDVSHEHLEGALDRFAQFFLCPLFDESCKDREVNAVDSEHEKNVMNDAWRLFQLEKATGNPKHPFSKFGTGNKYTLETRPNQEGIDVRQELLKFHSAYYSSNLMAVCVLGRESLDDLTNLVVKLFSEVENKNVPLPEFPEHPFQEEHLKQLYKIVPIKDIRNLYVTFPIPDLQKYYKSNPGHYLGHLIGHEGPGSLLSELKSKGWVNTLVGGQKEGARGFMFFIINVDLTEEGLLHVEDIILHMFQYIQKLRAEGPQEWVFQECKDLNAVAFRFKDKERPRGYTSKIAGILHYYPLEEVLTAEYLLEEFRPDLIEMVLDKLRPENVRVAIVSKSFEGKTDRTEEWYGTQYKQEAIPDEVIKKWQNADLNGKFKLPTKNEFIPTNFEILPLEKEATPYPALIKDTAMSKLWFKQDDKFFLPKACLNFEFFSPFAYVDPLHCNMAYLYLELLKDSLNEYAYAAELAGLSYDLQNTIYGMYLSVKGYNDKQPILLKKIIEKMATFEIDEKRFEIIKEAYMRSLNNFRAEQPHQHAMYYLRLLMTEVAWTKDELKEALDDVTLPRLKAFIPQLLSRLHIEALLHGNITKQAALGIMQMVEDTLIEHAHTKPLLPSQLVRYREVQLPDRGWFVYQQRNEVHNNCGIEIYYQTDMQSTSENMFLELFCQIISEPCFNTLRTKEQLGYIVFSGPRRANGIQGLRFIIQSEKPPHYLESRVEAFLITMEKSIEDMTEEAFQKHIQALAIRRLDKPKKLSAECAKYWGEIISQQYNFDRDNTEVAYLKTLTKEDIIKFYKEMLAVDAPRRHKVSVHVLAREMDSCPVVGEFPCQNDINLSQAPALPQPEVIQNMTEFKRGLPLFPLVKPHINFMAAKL

Insulin-degrading enzyme [13] = molecular target: T2, Insulin-degrading enzyme; test: activators of endogenous IDE in HEK cells, dose response, cell-based, fluorescence polarization (AID 588439); format: functional
HEK293 [14] = test: HEK cell cytotoxicity by LDH release, dose response, cytotoxicity control for IDE activator project, fluorescence, HEK cells (AID 588440); format: functional, cell-based; details: Homo sapiens;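 also: cytotoxicity by LDH release measuring loss of membrane integrity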
HEK293 [15] = test: optical interference in Abeta FP readout, dose response, artefact control for IDE activator project, biochemical, fluorescence polarization (AID 588442); format: functional, cell-based; details: Homo sapiens

Chain of Beta-galactosidase (Q8VNN2 whole entry): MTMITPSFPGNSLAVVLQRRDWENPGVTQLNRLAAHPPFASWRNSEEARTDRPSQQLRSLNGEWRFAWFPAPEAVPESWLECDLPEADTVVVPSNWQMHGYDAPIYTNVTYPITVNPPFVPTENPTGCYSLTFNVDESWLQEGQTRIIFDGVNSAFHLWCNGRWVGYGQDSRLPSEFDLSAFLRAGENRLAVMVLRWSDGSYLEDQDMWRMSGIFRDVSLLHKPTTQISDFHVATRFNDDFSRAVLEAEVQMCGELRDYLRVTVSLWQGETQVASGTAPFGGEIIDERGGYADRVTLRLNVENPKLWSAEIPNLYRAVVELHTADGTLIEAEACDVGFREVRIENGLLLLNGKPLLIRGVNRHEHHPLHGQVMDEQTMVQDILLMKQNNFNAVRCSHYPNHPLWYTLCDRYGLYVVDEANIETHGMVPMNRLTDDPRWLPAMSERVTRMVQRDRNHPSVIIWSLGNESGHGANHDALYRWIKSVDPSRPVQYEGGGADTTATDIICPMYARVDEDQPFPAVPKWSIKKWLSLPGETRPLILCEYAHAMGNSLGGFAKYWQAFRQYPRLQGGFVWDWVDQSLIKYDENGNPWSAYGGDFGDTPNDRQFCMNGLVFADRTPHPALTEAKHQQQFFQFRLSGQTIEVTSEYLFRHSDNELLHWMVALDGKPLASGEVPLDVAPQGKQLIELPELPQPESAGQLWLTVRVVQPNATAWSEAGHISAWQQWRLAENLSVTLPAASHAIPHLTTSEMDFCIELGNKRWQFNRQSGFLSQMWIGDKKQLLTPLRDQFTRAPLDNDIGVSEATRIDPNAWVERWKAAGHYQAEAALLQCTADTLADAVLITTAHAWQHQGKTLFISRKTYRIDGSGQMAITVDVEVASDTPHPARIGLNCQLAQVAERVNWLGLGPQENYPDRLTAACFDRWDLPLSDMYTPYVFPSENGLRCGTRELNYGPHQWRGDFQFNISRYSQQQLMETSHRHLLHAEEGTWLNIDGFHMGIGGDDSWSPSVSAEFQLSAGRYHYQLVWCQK
Chain of Voltage-gated inwardly rectifying potassium channel KCNH2 (Q12809 whole entry): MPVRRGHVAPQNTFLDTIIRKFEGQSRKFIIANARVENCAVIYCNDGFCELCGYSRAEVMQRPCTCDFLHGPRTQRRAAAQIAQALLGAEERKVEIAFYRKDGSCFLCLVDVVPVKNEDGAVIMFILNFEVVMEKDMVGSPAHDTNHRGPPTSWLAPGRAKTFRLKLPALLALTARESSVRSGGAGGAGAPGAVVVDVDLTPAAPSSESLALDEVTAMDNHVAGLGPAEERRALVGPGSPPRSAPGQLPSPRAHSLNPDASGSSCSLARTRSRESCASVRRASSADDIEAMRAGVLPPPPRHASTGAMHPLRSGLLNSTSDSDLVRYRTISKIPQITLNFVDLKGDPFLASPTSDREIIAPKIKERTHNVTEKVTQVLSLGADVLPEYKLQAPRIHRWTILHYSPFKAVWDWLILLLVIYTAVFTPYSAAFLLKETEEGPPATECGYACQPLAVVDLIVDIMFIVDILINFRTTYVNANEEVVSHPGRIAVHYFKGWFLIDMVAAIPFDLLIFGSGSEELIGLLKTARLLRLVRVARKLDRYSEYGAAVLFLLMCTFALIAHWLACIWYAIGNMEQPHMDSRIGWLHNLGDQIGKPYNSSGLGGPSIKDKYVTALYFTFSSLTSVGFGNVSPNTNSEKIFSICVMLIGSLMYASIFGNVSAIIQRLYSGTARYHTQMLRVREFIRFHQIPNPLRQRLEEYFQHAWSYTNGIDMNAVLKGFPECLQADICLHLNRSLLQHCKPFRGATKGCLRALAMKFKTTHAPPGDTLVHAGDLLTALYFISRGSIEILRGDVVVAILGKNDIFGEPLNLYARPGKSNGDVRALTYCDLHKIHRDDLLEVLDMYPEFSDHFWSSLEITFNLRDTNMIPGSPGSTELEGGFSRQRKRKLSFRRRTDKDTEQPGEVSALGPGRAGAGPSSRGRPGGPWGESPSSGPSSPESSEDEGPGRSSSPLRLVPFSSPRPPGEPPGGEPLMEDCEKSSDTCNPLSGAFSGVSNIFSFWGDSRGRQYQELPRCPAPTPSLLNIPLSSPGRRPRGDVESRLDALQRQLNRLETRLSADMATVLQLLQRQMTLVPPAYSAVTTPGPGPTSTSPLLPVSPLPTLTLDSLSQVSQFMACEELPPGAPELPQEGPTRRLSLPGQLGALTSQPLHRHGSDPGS

SMILES: NC1(C(=O)O)CC1
- AC50 [1]: 31.6 µM (inconclusive)

SMILES: O=C(CNS(=O)(=O)c1ccccc1)OCC(=O)c1cccc([N+](=O)[O-])c1
- EC50 (Beta-galactosidase): > 40 µM (inactive)
- IC50 [2]: 38.1 µM (not active)

SMILES: CCN(Cc1ccccc1)S(=O)(=O)c1ccc(C(=O)Nc2nnc(-c3ccccc3OC)o2)cc1
- EC50 [3]: 39.3 µM (active)
- EC50 [4]: 0.468 µM (active)
- EC50 [5]: > 180 µM (inactive)
- EC50 [6]: 19.9 µM (active)
- IC50 [7]: 8.19 µM (active)
- IC50 [8]: 56.5 µM (active)

SMILES: Cc1cc(Nc2ccc([N+](=O)[O-])cc2)c2ccccc2n1
- IC50 (Protein Wnt-3a): 14.1 µM (active)

SMILES: C=CCc1c(C)c(C#N)c2nc3ccccc3n2c1NCCN(C)C
- EC50 [3]: > 160 µM (inactive)
- EC50 [4]: 1.27 µM (active)
- EC50 [5]: > 180 µM (inactive)
- AC50 [9]: 4.45 µM (active)
- EC50 [6]: > 150 µM (inactive)

SMILES: COc1ccc(S(=O)(=O)N2CCCC(C(=O)Nc3ccc(NC(=O)c4ccccn4)cc3)C2)cc1 (stereo not drawn)
- EC50 [10]: > 120 µM (not active)
- EC50 (H4): 5.33 µM (active)
- EC50 [11]: 0.0809 µM (active)

SMILES: CCC1CCCCN1S(=O)(=O)c1ccc(S(=O)(=O)N2CCN(S(=O)(=O)CC)CC2)cc1 (stereo not drawn)
- EC50 (Insulin-degrading enzyme [12]): > 54.7 µM (inactive)
- EC50 (Insulin-degrading enzyme [13]): > 54.7 µM (inactive)
- IC50 (HEK293 [14]): > 9.91 µM (active)
- EC50 (HEK293 [15]): > 55.9 µM (inactive)

SMILES: CCOC(=O)c1ccc(NC(=O)Cc2coc3cc4c(cc23)CCC4)cc1
- EC50 [11]: 7.53 µM (active)
